# Where a name gives a salt, the structure may show the parent alone.
# What was measured:
# [1] = Parallel phase equilibrium experiments in suspensions of 32 solvents and solvent mixtures, Raman spectra grouped into classes; type: physicochemical; conditions: 64 experiments, 32 solvents/solvent mixtures; for number of different classes of Raman spectra (ideally corresponding to different solid forms of sertraline HCl): 48 hours shaking, temperature cycled between 18° C. and 28° C., similarity factor 0.5; for occurrence of form II among the solid forms obtained: 48 hours, 18° C. to 28° C., verified against reference spectra, HCl
# Experimental: A reference experiment with the stable form I as starting material is designed in such a way that 64 experiments are carried out for establishing the phase equilibrium in suspensions of 32 different solvents and solvent mixtures. For this purpose, 32 of the vessels in a 96-well quartz microtitre plate are each filled with about 5 mg of sertraline HCl form 1, and 100 microlitres of the corresponding solvent are then introduced into each vessel in accordance with the plan below, and the plate is closed with seals.
# The microtitre plate is then shaken on a mechanical shaker (Eppendorf, Thermomixer Comfort) for 48 hours, the temperature of the mechanical shaker being changed cydically between 18° C. and 28° C. A cycle corresponds to one hour. The shaking frequency is 500 per minute. After a time of 48 hours for establishing equilibrium, the microtitre plate is removed from the mechanical shaker and the solid in each of the occupied vessels is investigated directly in the suspension using a Raman microscope (Renishaw Raman microscope system RM 1000). One or two Raman spectra are recorded in each vessel. The solvents in each vessel are then evaporated with the aid of a seal system having flow-through channels according to WO 03/026797 under nitrogen, a flow rate of about 0.03 litre/hour being established. Altogether, 80 Raman spectra are recorded in 64 experiments (32 directly from the suspension and 32 from the dried suspension).
# The measured Raman spectra are divided into different classes of spectra on the basis of their differences. A separate evaluation programme which carries out an automatic comparison of measured spectra on the basis of the wave numbers of emission maxima in the Raman spectrum and generates a classification is used for this purpose. A distinguishing criterion is a similarity factor which is determined by visual assessment of selected, individual spectra.
# Similarly to the reference example described above, 64 experiments are carried out in 32 different solvents and solvent mixtures in 32 vessels of a 96-well microtitre plate. For this purpose, each of the 32 vessels is occupied with 3 mg of the amorphous form. 100 microlitres of solvent according to the plan given in the comparative example are then filled into each of the 32 vessels, and the plate is closed with seals. The microtitre plate is then shaken on a mechanical shaker (Eppendorf, Thermomixer Comfort), the temperature of the mechanical shaker being changed cyclically between 18° C. and 28° C. A cycle corresponds to one hour, and the shaking frequency is 500 per minute. After a time of 48 hours for establishing the equilibrium, the microtitre plate is removed from the mechanical shaker and the solid in each of the occupied vessels is investigated directly in the suspension using a Raman microscope. One or two Raman spectra are recorded in each vessel. The solvents in each vessel are then evaporated with the aid of a seal system having flow-through channels according to WO 03/026797 under nitrogen, a flow rate of about 0.03 litre per hour being established. Altogether, 92 Raman spectra are recorded in 64 experiments (32 directly from the suspension and 32 from the dried suspension).
# [2] = Morisette et al., Advanced Drug Delivery Reviews 56 (2004) 275-300; cited from earlier work
Compound,number of different classes of Raman spectra (ideally corresponding to different solid forms of sertraline HCl) [1],number of different crystal forms mentioned in the literature [2],occurrence of form II among the solid forms obtained [1]
"CN[C@H]1CC[C@@H](c2ccc(Cl)c(Cl)c2)c2ccccc21 [isopropanol solvate of sertraline HCl, sertraline HCl]",16,–,–
CN[C@H]1CC[C@@H](c2ccc(Cl)c(Cl)c2)c2ccccc21 [sertraline HCl],–,about 27,–
"CN[C@H]1CC[C@@H](c2ccc(Cl)c(Cl)c2)c2ccccc21 [amorphous form of sertraline HCl, sertraline HCl]",25,–,both the thermodynamically stable form I and the important form II are contained in these classes
"CN[C@H]1CC[C@@H](c2ccc(Cl)c(Cl)c2)c2ccccc21 [sertraline HCl form I, sertraline HCl]",11,–,the important form II did not form
